Test results as given in patent publication US20220397569A1, “ASSAY FOR RAPID EVALUATION OF CHOROIDAL MAST CELL DEGRANULATION” (THE JOHNS HOPKINS UNIVERSITY, priority 2019, published 2022).
Where a name gives a salt, the structure may show the parent alone. Read-outs that look alike come from different tables or passages of the source.

Key:
[1] = test system: choroidal MC degranulation; assay type: in vivo, rat
Protocol: Hydrogel preparation and injection. […] All components were then mixed together by vortex and placed on ice. The final solution was loaded into an insulin syringe with a 31-gauge needle (BD Biosciences, San Jose, Calif., USA) and then, exposed to UV light (AnalytikJena, Upland, Calif., USA) for 1.5 minutes. The release and stability of the hydrogel were evaluated in vitro in PBS, pH 7.4 at 37° C.20. The amount of 48/80 released was measured using bicinchoninic acid (BCA) assay.
Alcian blue staining. After RPE removal, eyecups were fixed in methanol-formalin-acetic acid cocktail for 30 minutes and MCs were further stained with 0.05% Alcian blue (pH 5.0) in 0.02 M sodium acetate buffer for 45 minutes. Choroids were isolated after eyecups were split at the meridian and the number of non-degranulated and degranulated MCs were counted.
RPE degeneration. After the choroid/sclera eyecup was stained with anti-RPE65 Ab, 4-5 fields from the gel and non-gel areas of each choroid were captured as optimized z-stacks at 10 or 20× magnification with Zeiss LSM710. Images were exported to ImageJ software, converted into 8-bit gray color and then, thresholded. The dark area was considered degenerating RPE. To exclude the area of RPE nucleus (unstained with anti-RPE65 Ab, therefore dark) from the total dark area, particle sizes ranging from 100-infinity (pixels^2) were analyzed so nuclei were excluded. Percentage of RPE degeneration was averaged per choroid and then, quantified.
Retinal and choroidal thickness. Eight μm cryosections through the optic nerve were stained with Picrosirius Red Stain Kit (Polysciences, Inc, Warrington, Pa., USA) for 5 minutes as recommended by the manufacturer. After rinsing in hydrochloric acid and dehydrating in ethanol, sections were cover-slipped with Permount Mounting Medium (Thermo Fisher Scientific, Waltham, Mass., USA). The sections were then imaged with a Zeiss Photomic II microscope at 10×, and adjacent overlapping images of each section were taken from Ora serrata to Ora serrata. The overlapping images were then stitched using Adobe Photoshop and a panorama image was generated. The entire retina and choroid of each panorama image was precisely hand-traced and areas of the retina and choroid, respectively, were measured using ImageJ.
(§1) Electroretinogram (ERG). After overnight dark adaptation, rats were deeply anesthetized followed by pupil dilation. The rats were placed on a heated platform and full-field scotopic ERGs were elicited by white light flashes with corneal electrodes at intensities ranging from 0.01 to 1 cd·s/m^2 using the Celeris ERG system (Diagnosys LLC, Lowell, Mass., USA). The amplitude of the a- and b-waves was measured from the a-wave trough to the b-wave peak.
Volumetric and sphericity measurement. Volumetric and sphericity measurements were performed in the rats to analyze changes in shape and size of choroidal macrophages/monocytes stained with Iba1 as previously reported.^23 Briefly, randomly chosen 4-5 fields of optimized 40× magnification z-stacks per choroid captured with Zeiss LSM710 were opened in Surpass View of Imaris software and surfaces (surface detail 1.5 μm) were created, using background subtraction (0.5 μm). Voxel number filtering was applied to remove nonspecific particles in the surfaces created. Cells touching others or ones which had only a portion of the cell body visible were omitted from the volume rendering and then, the cell volume and sphericity were quantified with Imaris software.
(§2) Drug treatments. Rats were pretreated for 1-2 days prior to 48/80 hydrogel injection with either oral treatment of ketotifen fumarate (15 mg/kg) or PBS twice daily. MC tryptase inhibitor APC 366 (5 mg/kg, CAS 258932-85-8, R&D Systems, Minneapolis, Minn.)^24 or control vehicle was administered subcutaneously once daily for 8 weeks.

[2] = mice, osteoarthritis model; cited from earlier work
[3] = test system: choroidal MCs; assay: Ex vivo eyecup assay after oral pretreatment of rats; design: species or system rat; settings: oral 15 mg/kg twice daily for 4 days prior to enucleation; eyecups in 48/80 300 μg/ml 3 hours; compared to PBS
Protocol: (§3) Ex vivo assays. An ex vivo assay was developed to evaluate drugs quickly and efficiently. After enucleation, the anterior segments and retinas were excised and the eyecups were split at the meridian and divided in halves. Then, eyecups were incubated with 300 μg/mL of 48/80 with or without 300 μg/mL of ketotifen fumarate in serum free DMEM in a 48-well plate for 3 hours. To evaluate oral ketotifen fumarate potential to prevent MC degranulation, rats were treated orally twice daily with ketotifen fumarate (15 mg/kg) in PBS or with PBS as control for 4 days and 2 hours prior to enucleation on the 5th day. Eyes were enucleated and exposed in 48/80 serum free DMEM for 3 hours. After washing, RPE was removed and the eyecup fixed for histochemistry. The choroid was isolated from the sclera and MCs were stained for NSE activity and viewed on the Zeiss LSM710 for the autofluorescence of the reaction product. The numbers of non-degranulated and degranulated cells were counted in the whole choroid. […]
(§4) Volumetric and sphericity measurement. […] Cells touching others or ones which had only a portion of the cell body visible were omitted from the volume rendering and then, the cell volume and sphericity were quantified with Imaris software.

[4] = Pharmacokinetic study of oral ketotifen fumarate in eye tissue (LC/MS-MS); assay type: in vivo, rat; settings: 3 mg/kg once daily by gavage, sacrificed on the 5th day
Protocol: Pharmacokinetic study. Ketotifen fumarate quantification in plasma and eye tissue was conducted using high-performance liquid chromatography with tandem mass spectrometry (LC/MS-MS). Briefly, acetonitrile containing 0.5 μM losartan as internal standard was used to extract ketotifen from choroid and retina. Standards were prepared by spiking ketotifen fumarate in naive tissue from […] in a half log dilution series. Samples were weighed and placed in low retention microcentrifuge tubes with 5 μL extraction solution/mg tissue and pestle homogenized. Samples were vortexed followed by centrifugation at 16 000 g for 5 minutes at 4° C. The supernatants were transferred to a 96-well plate and 2 μL were injected for analysis. Samples were analyzed on an UltiMate 3000 UHPLC coupled to Q Exactive Focus orbitrap mass spectrometer (Thermo Fisher Scientific, Waltham, Mass., USA) using an Agilent EclipsePlus C18 RRHD (1.8 μm; 2.1. 100 mm) column. The mobile phase consisted of water+0.1% formic acid, and acetonitrile+0.1% formic acid. […] Samples were analyzed in positive ion mode via heated electrospray with capillary temperature set at 350° C. and a spray voltage of 3.5 kV. […] Data were acquired and quantified with Xcalibur software (Thermo Fisher Scientific, Waltham, Mass., USA).

[5] = test system: RBL-2H3 cells; assay: β-hexosaminidase release assay for MC degranulation in RBL-2H3 cells; assay type: cell-based; settings: Rattus norvegicus, RBL-2H3, 0.75 h; 48/80 10 μg/mL, ketotifen fumarate 10 μg/mL, 45 minutes
Protocol: In vitro assays. RBL-2H3 cells (CRL-2256, ATCC, Manassas, Va., USA) were used for the in vitro assay for MC degranulation. Cell degranulation was assessed by the (3-hexosaminidase release as previously described.^22 A density of 50 000 cells/well was plated overnight in a 96-well plate. Ten μg/mL of 48/80 or 10 μg/mL of ketotifen fumarate (1(2628, Millipore Sigma, St Louis, Mo., USA)+10 μg/mL of 48/80 dissolved in 100 μL serum free media (DMEM with 1.0 g/L glucose) (Thermo Fisher Scientific, Waltham, Mass.) were added to each well and incubated for 45 minutes. Then, the cells were lysed using 1% triton X-100 to determine MC β-hexosaminidase that was still cell associated. Twenty μL of the supernatant and then, the cell lysate was collected and added to 50 μL of cold 4-Nitrophenyl N-acetyl-B-d-glucosaminide (1.3 mg/mL in Citrate Buffer, pH 4.5, Millipore Sigma, St Louis, Mo., USA) to detect the amount of β-hexosaminidase released. […] The plate was read at 405 nm wavelength using a microplate reader (ELx808, BioTek, Winooski, Vt., USA). Degranulation was calculated as the percentage of β-hexosaminidase activity measured in the supernatants relative to the total amount of β-hexosaminidase activity in the cells exposed to 1% triton X-100 (100% degranulation).

[6] = test system: choroidal MCs; assay: Ex vivo eyecup assay, co-incubation with 48/80 (MC degranulation, macrophage volume and sphericity); assay type: cell-based; settings: S/D rat eyecups, 48/80 300 μg/mL with ketotifen fumarate 300 μg/mL, 3 hours
Protocol: as §3, §4

[7] = rats; cited from earlier work
[8] = Tolerability of oral ketotifen fumarate in rats (RPE, body weight, ERG); assay type: in vivo, rat
Protocol: as §1, §2

[9] = APC 366 5 mg/kg subcutaneous daily, 4 weeks
[10] = oral ketotifen fumarate 15 mg/kg twice daily, 4 weeks post 48/80-hydrogel implantation

Row | SMILES | RPE degeneration [1, 9] | choroidal macrophage/monocyte activation [1, 9] | retinal and choroidal thickness ([1]; APC 366 5 mg/kg subcutaneous daily, 8 weeks) | ERG amplitude, a- and b-waves ([1]; rat, in vivo, sc, 5 mg/kg) | inflammation (transcriptional expression of IL-1β, IL-6, IL-8, CC-motif ligand 2, MMP-3) [2] | MC degranulation [1, 10] | RPE degeneration [1, 10] | retina and choroidal thickness ([1]; oral ketotifen fumarate 15 mg/kg twice daily, 8 weeks post implantation) | MC degranulation prevented [3] | macrophage activation [3] | ketotifen fumarate in choroid [4] | ketotifen fumarate in retina [4] | inhibition at 10 µg/mL [5] | choroidal macrophage activation (sphericity, volume of Iba1+ cells) [6] | prevention of 48/80-induced MC degranulation [6] | non-REM and REM sleep [7] | RPE morphology or viability ([8]; normal S/D rats, oral 15 mg/kg twice daily for 6 wk) | ERG amplitudes after drug treatment alone ([8]; normal rats, 6 weeks of drug treatment) | adverse effects ([8]; oral administration) | growth of the animals (body weight) ([8]; oral twice daily for 6 wk after 48/80 implantations)
1 | NC(=O)[C@@H]1CCCN1C(=O)[C@H](CCCN=C(N)N)NC(=O)c1ccc2ccccc2c1O [APC 366] | RPE degeneration was significantly inhibited | choroidal macrophage/monocyte activation was prevented | significantly less retinochoroidal thinning | reduction in ERG amplitude of both a- and b-waves was prevented | suppressed inflammation |  |  |  |  |  |  |  |  |  |  |  |  |  |  | 
2 | CN1CCC(=C2c3ccccc3CC(=O)c3sccc32)CC1 [ketotifen fumarate] |  |  |  |  |  | significantly prevented | significantly prevented RPE degeneration | retinochoroidal thinning was inhibited | 37% | significantly prevented macrophage activation | 13 to 29 nM | 12 to 52 nM | 56% | choroidal macrophage activation was prevented | prevented MC degranulation, equivalent to the level of untreated eyecups | dose dependently decreased non-rapid eye movement (REM) sleep and increased REM sleep | did not affect RPE morphology or viability | normal | did not manifest any adverse effects | nor did it affect growth of the animals
